Laboratory results as given in patent US11958812B2, “3, 5-disubstituted pyridine and 3, 5-disubstituted pyridazine derivatives and pharmaceutical use of same” (MITSUBISHI TANABE PHARMA CORPORATION, priority 2018, dated 2024).

Tests used:
[1] = tested on: bleomycin (BLM)-induced lung fibrosis model; assay: Mouse bleomycin-induced lung fibrosis model: fibrosis markers in plasma, BALF and lung; type: in vivo, female C57BL/6J mouse; details: 30 mg/kg, bid, oral, 14 days
Method: [Consideration of Action of ATX Inhibitor on Mouse Bleomycin-Induced Lung Fibrosis Model]
The effectiveness of an ATX inhibitor (Example 5, hereinafter to be referred to as example 5 in the Figures) on bleomycin (BLM)-induced lung fibrosis model was evaluated using, as an index, variation of each fibrosis index marker in the plasma or BALF, or fibrosis related genes in the lung.
8-Week-old mice were grouped in the group constitution shown in Table 24 using a simulation method such that the body weight would become uniform before the previous day of bleomycin administration (SOP/STA/RA-0003). The mice were anesthetized with isoflurane, 0.5 mg/mL of bleomycin solution was intratracheally administered at 50 μL/head to produce a bleomycin-induced lung fibrosis model (1.25 U/kg). In the saline group, physiological saline was administered instead of bleomycin. The ATX inhibitor (Example 5) was orally administered two times per day from the day of bleomycin administration. In addition, the body weight was measured once per day from the day of grouping.
One equivalent of a mixture of 1N NaOH and 0.5% CMC solution (100 μL in total) relative to the ATX inhibitor (Example 5) was added, 10 zirconia beads (φ3 mm) were added, and they were pulverized using a mixer mill MM400 (frequency 28.01/min, pulverization time 10 min). 0.5% CMC was added to […] to give a suspension and the suspension was sonicated for 10 min. The administration dose volume was 10 mL/Kg and the administration dose amount was 30 mg/kg. Administration was performed twice per day and the initial administration was performed 30 min before BLM administration.
animal species: female C57BL/6J mouse, supply company: CHARLES RIVER LABORATORIES JAPAN, INC., number of animals used: 10 per group (age at arrival: 7 weeks old).
At 14 days from the bleomycin administration, plasma, BALF and lung tissue were collected. BALF was recovered and the concentration of LPA (18:2) in BALF (FIG. 6) was measured. After blood was collected from the abdominal vena cava, whole blood was anticoagulated using heparin and centrifuged to collect plasma. Then, the ATX activity (FIG. 5) and SP-D (FIG. 1) in the plasma were measured. Furthermore, the chest was opened and whole lung tissue was collected, and gene expression of each of Col1a1 (FIG. 2), CTGF (FIG. 3) and IL-6 (FIG. 4) in the lung was analyzed. For the gene expression analysis, mRNA was extracted from the lung tissue using TRIzol, reverse transcription was performed using a kit of Life technologies, and qPCR was performed using Tagman probe.
An organic solvent and LPA (17:0) solution as an internal standard substance were added to the collected BALF (200 μL), and the mixture was dried to solidness under reduced pressure at 35° C. […] The analysis sample was separated by reversed-phase column and LPA (18:2) was detected by the QTRAP6500 system (ABSciex). In addition, LPA (18:2) synthesis reference standard was added to PBS buffer used for recovery of BALF and compared with the analytical curve sample that underwent a similar pre-treatment, whereby the concentration of LPA (18:2) contained in BALF was calculated (FIG. 6).
The difference between the saline group and the BLM administration group and the difference between the BLM administration group and the compound administration group were analyzed by the Student's t-test wherein the significance level was 5% on both sides. […]

[2] = target: human recombinant ATX (Homo sapiens, UniProt Q13822); assay: Enzyme inhibition test (choline release from LPC, Amplex UltraRed fluorescence); type: biochemical; details: 200 μM LPC substrate, 1 hr at room temperature, read-out: Experimental Example 1 human ATX IC50
Procedure, shortened: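 Recombinant human ATX (enzyme solution 0.4 ng/µL) acted on a mix of 200 µM LPC, Amplex UltraRed, peroxidase and choline oxidase in Tris pH 8.0 buffer with BSA and 0.0025% Triton X-100, 1 h at room temperature. Choline was read by fluorescence (Ex 525/Em 598 nm) against a choline chloride standard. IC50 came from % inhibition relative to enzyme-free and inhibitor-free controls.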

IC50 [2]: 1 nM
SMILES: COc1ccc(-c2cnnc(OC[C@H]3CC[C@H](C(F)(F)F)CC3)c2)nc1[C@H]1C[C@@H]1C(=O)O [Example 5, (1S,2S)-2-[3-methoxy-6-(6-{[trans-4-(trifluoromethyl)cyclohexyl]methoxy}pyridazin-4-yl)pyridin-2-yl]cyclopropanecarboxylic Acid]
SP-D in the plasma ([1]; FIG. 1): suppressed
production of LPA (C18:2) in BALF ([1]; FIG. 6): suppressive action
Col1a1 gene expression in the lung ([1]; mRNA in lung tissue, FIG. 2): expression suppressive action
CTGF gene expression in the lung ([1]; mRNA in lung tissue, FIG. 3): expression suppressive action
IL-6 gene expression in the lung ([1]; mRNA in lung tissue, FIG. 4): expression suppressive action
